Reference: PubChem BioAssay AID256 (DTP/NCI, 2004)
Toxic doses and inconclusive results are not listed. Rule for the calls: active = survival T/C of 150% or more; inactive = T/C below 125% in these data.

Test system: CD2F1 mice, L1210 leukemia ip, survival T/C
Test: NCI In Vivo Anticancer Drug Screen. Data for tumor model L1210 Leukemia (intraperitoneal) in CD2F1 (CDF1) mice
Settings: higher = longer survival
Procedure, shortened: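 Ratio T/C, where T is the treated-group value and C the vehicle-dosed control value, from mice implanted with a transplantable tumor.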

[1] = endpoint: mean survival time, dose: 100.0 mg/kg/injection, schedule: Q01DX001 (ip), vehicle: other
[2] = endpoint: mean survival time, dose: 200.0 mg/kg/injection, schedule: Q01DX001 (ip), vehicle: other
[3] = endpoint: mean survival time, dose: 400.0 mg/kg/injection, schedule: Q01DX001 (ip), vehicle: other
[4] = endpoint: mean survival time, dose: 50.0 mg/kg/injection, schedule: Q01DX009 (ip), vehicle: saline with Tween-80
[5] = endpoint: mean survival time, dose: 100.0 mg/kg/injection, schedule: Q01DX009 (ip), vehicle: saline with Tween-80
[6] = endpoint: mean survival time, dose: 200.0 mg/kg/injection, schedule: Q01DX009 (ip), vehicle: saline with Tween-80
[7] = endpoint: mean survival time, dose: 400.0 mg/kg/injection, schedule: Q01DX009 (ip), vehicle: saline with Tween-80
[8] = endpoint: mean survival time, dose: 100.0 mg/kg/injection, schedule: Q04DX002 (ip), vehicle: saline with Tween-80
[9] = endpoint: mean survival time, dose: 200.0 mg/kg/injection, schedule: Q04DX002 (ip), vehicle: saline with Tween-80
[10] = endpoint: mean survival time, dose: 400.0 mg/kg/injection, schedule: Q04DX002 (ip), vehicle: saline with Tween-80
[11] = endpoint: mean survival time, dose: 100.0 mg/kg/injection, schedule: Q04DX003 (ip), vehicle: saline with Tween-80
[12] = endpoint: mean survival time, dose: 200.0 mg/kg/injection, schedule: Q04DX003 (ip), vehicle: saline with Tween-80
[13] = endpoint: mean survival time, dose: 400.0 mg/kg/injection, schedule: Q04DX003 (ip), vehicle: saline with Tween-80

Measured: T/C

Nc1cc(N)c2[nH]cnc2n1
inactive: [1] 104 % of control | [2] 97 % of control | [3] 98 % of control

CN(C)P(=O)(OCCCOCc1ccccc1)N(CCCl)CCCl (centres undefined)
inactive: endpoint: mean survival time, dose: 25.0 mg/kg/injection, schedule: Q01DX001 (ip), vehicle: other 93 % of control | endpoint: mean survival time, dose: 50.0 mg/kg/injection, schedule: Q01DX001 (ip), vehicle: other 101 % of control | [1] 91 % of control | [2] 90 % of control | [3] 87 % of control

CC(=O)N(C)c1ccc(NC(=O)Nc2ccc(C)c(C)c2)cc1
inactive: [4] 91 % of control | [5] 91 % of control | [6] 88 % of control

COc1ccc(CCN2COc3ccc4ccc(=O)oc4c3C2)cc1OC
inactive: [5] 92 % of control | [6] 97 % of control | [7] 97 % of control

Oc1ccc(C(=S)N2CCOCC2)cc1
inactive: endpoint: mean survival time, dose: 100.0 mg/kg/injection, schedule: Q01DX009 (ip), vehicle: saline 100 % of control | endpoint: mean survival time, dose: 200.0 mg/kg/injection, schedule: Q01DX009 (ip), vehicle: saline 95 % of control | endpoint: mean survival time, dose: 400.0 mg/kg/injection, schedule: Q01DX009 (ip), vehicle: saline 94 % of control

CSc1cc(=O)n(C2OC(COCc3ccccc3)C(OCc3ccccc3)C2OCc2ccccc2)c(=O)[nH]1 (centres undefined)
inactive: endpoint: mean survival time, dose: 100.0 mg/kg/injection, schedule: Q01DX005 (ip), vehicle: saline 111 % of control | endpoint: mean survival time, dose: 200.0 mg/kg/injection, schedule: Q01DX005 (ip), vehicle: saline 107 % of control

CCOC(=O)c1cn(C)c2c1C(O)=C(C(=O)OC)CC(=O)N2
inactive: endpoint: median survival time, dose: 25.0 mg/kg/injection, schedule: Q01DX009 (ip), vehicle: saline with Tween-80 90 % of control | endpoint: median survival time, dose: 50.0 mg/kg/injection, schedule: Q01DX009 (ip), vehicle: saline with Tween-80 98 % of control | endpoint: median survival time, dose: 100.0 mg/kg/injection, schedule: Q01DX009 (ip), vehicle: saline with Tween-80 92 % of control | endpoint: median survival time, dose: 200.0 mg/kg/injection, schedule: Q01DX009 (ip), vehicle: saline with Tween-80 94 % of control | endpoint: median survival time, dose: 400.0 mg/kg/injection, schedule: Q01DX009 (ip), vehicle: saline with Tween-80 90 % of control

CCOC(=O)C1(C(C)CC)SCCCS1 (centres undefined)
inactive: [8] 97 % of control | [9] 97 % of control | [10] 94 % of control

CSc1nc(NC2OCC(O)C(O)C2O)c(Br)c(=O)n1C (centres undefined)
inactive: endpoint: median survival time, dose: 12.5 mg/kg/injection, schedule: Q01DX005 (ip), vehicle: saline with Tween-80 98 % of control | endpoint: median survival time, dose: 25.0 mg/kg/injection, schedule: Q01DX005 (ip), vehicle: saline with Tween-80 100 % of control | endpoint: median survival time, dose: 50.0 mg/kg/injection, schedule: Q01DX005 (ip), vehicle: saline with Tween-80 101 % of control | endpoint: median survival time, dose: 100.0 mg/kg/injection, schedule: Q01DX005 (ip), vehicle: saline with Tween-80 102 % of control | endpoint: median survival time, dose: 200.0 mg/kg/injection, schedule: Q01DX005 (ip), vehicle: saline with Tween-80 98 % of control

Cc1cccnc1-n1c(N)cc(=O)[nH]c1=S
inactive: [11] 97 % of control | [12] 101 % of control | [13] 100 % of control

CC(=O)Nc1c(N=Cc2ccc([N+](=O)[O-])cc2)cc2c3c(cccc13)CC2
inactive: endpoint: mean survival time, dose: 50.0 mg/kg/injection, schedule: Q04DX003 (ip), vehicle: Klucel (hydroxypropylcellulose) (HPC) 91 % of control | endpoint: mean survival time, dose: 100.0 mg/kg/injection, schedule: Q04DX003 (ip), vehicle: Klucel (hydroxypropylcellulose) (HPC) 96 % of control | endpoint: mean survival time, dose: 200.0 mg/kg/injection, schedule: Q04DX003 (ip), vehicle: Klucel (hydroxypropylcellulose) (HPC) 94 % of control

[O-][n+]1ccc(-c2ccccc2)nc1
inactive: endpoint: mean survival time, dose: 50.0 mg/kg/injection, schedule: Q04DX002 (ip), vehicle: saline with Tween-80 106 % of control | [8] 103 % of control | [9] 117 % of control

CC(=O)Nc1ncc(C)s1
inactive: [5] 102 % of control | [11] 97 % of control | [6] 104 % of control | [12] 101 % of control | [7] 95 % of control | [13] 101 % of control

CCCC(CCC)NCCO
inactive: endpoint: mean survival time, dose: 75.0 mg/kg/injection, schedule: Q01DX001 (ip), vehicle: saline 98 % of control | endpoint: mean survival time, dose: 150.0 mg/kg/injection, schedule: Q01DX001 (ip), vehicle: saline 96 % of control

OC(c1cc2ccc(C(F)(F)F)cc2c2cc(C(F)(F)F)ccc12)C1CCCCN1 (centres undefined)
inactive: endpoint: mean survival time, dose: 9.4 mg/kg/injection, schedule: Q01DX009 (ip), vehicle: saline 101 % of control | endpoint: mean survival time, dose: 18.8 mg/kg/injection, schedule: Q01DX009 (ip), vehicle: saline 102 % of control | endpoint: mean survival time, dose: 37.5 mg/kg/injection, schedule: Q01DX009 (ip), vehicle: saline 96 % of control

Fc1ccc(-c2ccc(F)cc2)cc1
inactive: [11] 101 % of control | [12] 98 % of control | [13] 98 % of control

CCCCSC(=O)Nc1ccccc1
inactive: [8] 95 % of control | [9] 92 % of control | [10] 92 % of control

COC1=C(C)C(=O)C2=C(C1=O)C(CO)N1C(C#N)C3CC4C(C1C2N1CCOC41)N3C (centres undefined)
inactive: endpoint: median survival time, dose: 0.12 mg/kg/injection, schedule: Q01DX005 (ip), vehicle: acid diluted with saline 102 % of control | endpoint: median survival time, dose: 0.12 mg/kg/injection, schedule: Q01DX009 (ip), vehicle: saline + alcohol 111 % of control | endpoint: median survival time, dose: 0.25 mg/kg/injection, schedule: Q01DX005 (ip), vehicle: acid diluted with saline 102 % of control | endpoint: median survival time, dose: 0.25 mg/kg/injection, schedule: Q01DX009 (ip), vehicle: saline + alcohol 113 % of control | endpoint: median survival time, dose: 0.5 mg/kg/injection, schedule: Q01DX005 (ip), vehicle: acid diluted with saline 105 % of control | endpoint: median survival time, dose: 0.5 mg/kg/injection, schedule: Q01DX009 (ip), vehicle: saline + alcohol 111 % of control | endpoint: median survival time, dose: 1.0 mg/kg/injection, schedule: Q01DX005 (ip), vehicle: acid diluted with saline 104 % of control | endpoint: median survival time, dose: 1.0 mg/kg/injection, schedule: Q01DX009 (ip), vehicle: saline + alcohol 108 % of control

S=C1SCCN1c1ccccc1
inactive: [5] 96 % of control | [11] 103 % of control | [6] 96 % of control | [12] 101 % of control | [7] 95 % of control | [13] 100 % of control

Nc1ccc(C(=O)O)c([N+](=O)[O-])c1
inactive: endpoint: mean survival time, dose: 100.0 mg/kg/injection, schedule: Q01DX001 (ip), vehicle: Klucel (hydroxypropylcellulose) (HPC) 96 % of control | endpoint: mean survival time, dose: 200.0 mg/kg/injection, schedule: Q01DX001 (ip), vehicle: Klucel (hydroxypropylcellulose) (HPC) 100 % of control | endpoint: mean survival time, dose: 400.0 mg/kg/injection, schedule: Q01DX001 (ip), vehicle: Klucel (hydroxypropylcellulose) (HPC) 100 % of control

C=C1C(=O)OC2C1C(OC(=O)/C(=C/C)COC(C)=O)CC1(CO1)C1C(OC(=O)/C(=C/C)CO)C=C(C)C21 (centres undefined)
inactive: endpoint: mean survival time, dose: 100.0 mg/kg/injection, schedule: Q01DX001 (ip), vehicle: saline with Tween-80 88 % of control | endpoint: mean survival time, dose: 400.0 mg/kg/injection, schedule: Q01DX001 (ip), vehicle: saline with Tween-80 93 % of control

CCN(CC)CCC(CN(C)C)C(C)=O (centres undefined)
inactive: endpoint: mean survival time, dose: 75.0 mg/kg/injection, schedule: Q01DX001 (ip), vehicle: other 106 % of control | endpoint: mean survival time, dose: 150.0 mg/kg/injection, schedule: Q01DX001 (ip), vehicle: other 103 % of control | endpoint: mean survival time, dose: 300.0 mg/kg/injection, schedule: Q01DX001 (ip), vehicle: other 96 % of control

O=C(NC(=S)N1CCCC1)c1ccccc1
inactive: [4] 101 % of control | [5] 103 % of control | [6] 106 % of control

CC(C)c1cc2c(cc1O)C1(C)CCCC(C)(C(=O)O)C1CC2 (centres undefined)
inactive: [5] 98 % of control | [11] 95 % of control | [6] 102 % of control | [12] 96 % of control | [7] 101 % of control | [13] 94 % of control
